Among the test systems are RPMI-8226; TK-10; DLD-1; COLO 205; UO-31; SK-OV-3; CCRF-CEM; NCI/ADR-RES; MDA-MB-231; MDA-N; Hs-578T; BT-549; T47D; DU-145; SR; MDA-MB-435; PC-3; MCF7; KM12; 786-0.
Holding throughout (experiment): NCI anticancer screen, dose series, 48 h

Structures are written as SMILES.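 Exposure lasted 48 hours, with cells grown in 96-well plates and compounds tested at five concentrations. GI50: concentration for 50% inhibition of growth.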 Calls of active or inactive are those of the source. Cut-off read from the data, not from the text of the source: active = GI50 up to about 1.1 µM and inactive = higher.

In the case of `CC1=NC(C(=O)O)Cc2c1[nH]c1ccccc21` (stereo unspecified), the GI50 with RPMI-8226, with TK-10, in the assay with DLD-1, in the assay on COLO 205, with UO-31 and in the assay with SK-OV-3 was > 100 µM (inactive) in each case. In the assay with CCRF-CEM, the GI50 is > 100 µM (inactive).

Consider `Fc1c(F)c(F)c(CSc2nc3ccccc3[nH]2)c(F)c1F`, for which the GI50 with NCI/ADR-RES, in the assay with RPMI-8226, in the assay on MDA-MB-231, in the assay with MDA-N, in the assay on Hs-578T and in the assay on BT-549 was > 100 µM (inactive) each time. Moreover, the GI50 with T47D was > 100 µM (inactive); with DU-145, > 100 µM (inactive); in the assay on TK-10, > 100 µM (inactive); with SR it was 59 µM (inactive); with MDA-MB-435, > 100 µM (inactive); in the assay with PC-3, > 100 µM (inactive). For the same molecule, the GI50 with COLO 205, in the assay with UO-31, in the assay with SK-OV-3, in the assay with MCF7, with KM12 and in the assay with CCRF-CEM was > 100 µM (inactive) in each case.

For the molecule `O=C1NC2(CCCCC2)C2CCCCCC12` (stereo unspecified), the GI50 in the assay with TK-10, with SR, in the assay with DLD-1, in the assay with UO-31, in the assay with SK-OV-3 and with KM12 was > 100 µM (inactive) throughout.

As for `O=C1CN(c2ccccc2)C(=O)C1C(=O)Nc1ccc(Cl)c(Cl)c1` (stereo unspecified), the GI50 in the assay with TK-10 was 7.05 µM (inactive); in the assay on SR it was 0.581 µM (active); with DLD-1 it was 5.08 µM (inactive); with COLO 205 it was 8.07 µM (inactive); in the assay on UO-31, 4.12 µM (inactive); with SK-OV-3, 5.19 µM (inactive). Moreover, in the assay with CCRF-CEM, the GI50 was 1.84 µM (inactive).

Regarding `N#CC(=N)c1ncn(-c2ccccc2N)c1N`, the GI50 in the assay with NCI/ADR-RES, in the assay on RPMI-8226, in the assay on MDA-MB-231, in the assay with 786-0, in the assay with MDA-N and in the assay on Hs-578T was > 100 µM (inactive) throughout. The GI50 in the assay on BT-549, with T47D, with DU-145, in the assay with TK-10, in the assay with SR and in the assay with MDA-MB-435 was > 100 µM (inactive) each time. For the same molecule, the GI50 in the assay on PC-3, in the assay with COLO 205, in the assay with UO-31, in the assay with SK-OV-3, in the assay with MCF7 and in the assay on KM12 was > 100 µM (inactive) in each case. In the assay on CCRF-CEM, the GI50 is > 100 µM (inactive).

Turning to `CC1(C)C2CCC3(OCCO3)C1C(O)C2` (stereo unspecified), the GI50 in the assay on RPMI-8226, in the assay with 786-0, in the assay with TK-10, in the assay on DLD-1, in the assay with UO-31 and in the assay on KM12 was > 100 µM (inactive) each time. For the same molecule, the GI50 with CCRF-CEM is > 100 µM (inactive).

Consider `O=C(NNC(=S)NCc1ccccc1)C12CC3CC(CC(C3)C1)C2`, for which the GI50 is 89.1 µM (inactive) in the assay with NCI/ADR-RES; 45.1 µM (inactive) in the assay with RPMI-8226; > 100 µM (inactive) with MDA-MB-231; 96.8 µM (inactive) with 786-0; 67.9 µM (inactive) with MDA-N; > 100 µM (inactive) in the assay with Hs-578T. Besides, the GI50 in the assay with BT-549 is > 100 µM (inactive); with T47D, 49.2 µM (inactive); in the assay on DU-145, 85.9 µM (inactive); in the assay with TK-10 it was > 100 µM (inactive); in the assay on SR, 9.33 µM (inactive); with MDA-MB-435, 87.3 µM (inactive). Moreover, the GI50 in the assay on PC-3 is 25.8 µM (inactive); with COLO 205 it was 20.4 µM (inactive); in the assay on UO-31, 50.1 µM (inactive); with SK-OV-3, > 100 µM (inactive); with MCF7, 61.4 µM (inactive); with KM12, 40.6 µM (inactive). Further, the GI50 with CCRF-CEM is 24.3 µM (inactive).

`COc1cc2c(cc1OC)C(Cl)C(c1cc(OC)c(OC)c(OC)c1)=C2Cl` (stereo unspecified): the GI50 with RPMI-8226 is 8.71 µM (inactive); in the assay with TK-10 it was 20.3 µM (inactive); in the assay on DLD-1, 19.4 µM (inactive); with COLO 205 it was 17.5 µM (inactive); in the assay on UO-31, 11 µM (inactive); with SK-OV-3 it was 28.4 µM (inactive). Besides, the GI50 in the assay with CCRF-CEM was 4.67 µM (inactive).

For the molecule `O=C1OC(c2ccc(Cl)cc2)(c2ccc(Cl)cc2)c2c1ccc1ccccc21`, the GI50 in the assay on RPMI-8226 was 5.94 µM (inactive); with TK-10, > 100 µM (inactive); in the assay with DLD-1, > 100 µM (inactive); in the assay on COLO 205, > 100 µM (inactive); with UO-31, 92.3 µM (inactive); in the assay with SK-OV-3 it was > 100 µM (inactive). In addition, the GI50 with KM12 and with CCRF-CEM was > 100 µM (inactive) throughout.

Regarding `Nc1cc2nc(O)c(O)nc2cc1N`, the GI50 in the assay on NCI/ADR-RES, with RPMI-8226, with MDA-MB-231, in the assay with 786-0, in the assay with MDA-N and in the assay on Hs-578T was > 100 µM (inactive) in each case. For the same molecule, the GI50 with BT-549, in the assay on T47D, with DU-145, in the assay with TK-10, in the assay with SR and in the assay with MDA-MB-435 was > 100 µM (inactive) each time. For the same molecule, the GI50 in the assay on PC-3, with COLO 205, with UO-31, in the assay with SK-OV-3, in the assay with MCF7 and in the assay on KM12 was > 100 µM (inactive) each time. For the same molecule, in the assay with CCRF-CEM, the GI50 is > 100 µM (inactive).

Take `COc1ccc2c(C)cc(N/N=C/c3sccc3C)nc2c1`: the GI50 was 10 µM (inactive) in the assay with NCI/ADR-RES; 5.69 µM (inactive) in the assay on RPMI-8226; 1.43 µM (inactive) in the assay with MDA-MB-231; 14.3 µM (inactive) in the assay on MDA-N; 12.5 µM (inactive) in the assay on Hs-578T; 13.1 µM (inactive) in the assay on BT-549. Moreover, the GI50 in the assay on T47D is 7.76 µM (inactive); in the assay on DU-145, 6.68 µM (inactive); in the assay with TK-10, 17.1 µM (inactive); in the assay with SR, 22.9 µM (inactive); in the assay with MDA-MB-435, 16.6 µM (inactive); in the assay on PC-3, 12.9 µM (inactive). Besides, the GI50 in the assay on COLO 205 is 3.91 µM (inactive); with UO-31 it was 17.1 µM (inactive); in the assay with SK-OV-3 it was 17.1 µM (inactive); in the assay with MCF7, 11.4 µM (inactive); in the assay with KM12, 8.05 µM (inactive); in the assay with CCRF-CEM it was 39.8 µM (inactive).

For the molecule `CO[C@@H]1O[C@H](C(=O)c2ccccc2)[C@H]2OC(C)(C)O[C@@H]12`, the GI50 with NCI/ADR-RES was 74.1 µM (inactive); in the assay on RPMI-8226, > 100 µM (inactive); in the assay on MDA-MB-231, 79.3 µM (inactive); in the assay with 786-0 it was > 100 µM (inactive); in the assay on MDA-N, > 100 µM (inactive); with Hs-578T, 83 µM (inactive). In addition, the GI50 with BT-549 is 68.9 µM (inactive); with T47D, > 100 µM (inactive); in the assay on DU-145, 54.5 µM (inactive); in the assay on TK-10, > 100 µM (inactive); in the assay with SR, 57.8 µM (inactive); in the assay with MDA-MB-435, 85.3 µM (inactive). Moreover, the GI50 in the assay on PC-3, in the assay on COLO 205, in the assay with UO-31, in the assay with SK-OV-3, with MCF7 and with KM12 was > 100 µM (inactive) in each case. Besides, in the assay with CCRF-CEM, the GI50 is 49.7 µM (inactive).

On to `COC(=O)c1cccc(C(=O)OC)c1`, for which the GI50 with RPMI-8226, with TK-10, in the assay on SR, in the assay on DLD-1, in the assay on COLO 205 and in the assay on SK-OV-3 was > 100 µM (inactive) throughout. In addition, the GI50 in the assay on KM12 and in the assay on CCRF-CEM was > 100 µM (inactive) in each case.

Turning to `CCOC(=O)NC(=O)c1cn(CCSCCOC(=O)NCCCCCCNC(=O)OCCSCCn2cc(C(=O)NC(=O)OCC)c(=O)[nH]c2=O)c(=O)[nH]c1=O`, the GI50 in the assay with TK-10, in the assay on DLD-1, in the assay with COLO 205, in the assay on UO-31, with SK-OV-3 and in the assay on CCRF-CEM was > 100 µM (inactive) in each case.

With `CCOC1=C2N=C(Cc3ccc(F)cc3)NC2C(=O)c2ccccc21` (stereo unspecified), the GI50 with RPMI-8226 was 11.6 µM (inactive); in the assay on 786-0, 20.8 µM (inactive); in the assay with TK-10, 32.6 µM (inactive); in the assay on DLD-1, 27 µM (inactive); in the assay on COLO 205, 23.3 µM (inactive); with UO-31 it was 4.69 µM (inactive). Also, the GI50 in the assay with SK-OV-3 is 38.2 µM (inactive); in the assay on KM12, 27.5 µM (inactive); with CCRF-CEM, 8.26 µM (inactive).

As to `C=CCNC1=C2C[C@@H](C)C[C@H](OC)[C@H](O)[C@@H](C)/C=C(\C)[C@H](OC(N)=O)[C@@H](OC)/C=C\C=C(/C)C(=O)NC(=CC1=O)C2=O` [TANESPIMYCIN], the GI50 in the assay with NCI/ADR-RES was 5.69 µM (inactive); in the assay on RPMI-8226, 0.0731 µM (active); in the assay with MDA-MB-231, 1.11 µM (active); with 786-0 it was 0.0638 µM (active); with MDA-N it was 0.0199 µM (active); with Hs-578T it was 0.575 µM (active). Also, the GI50 with BT-549 is 5.73 µM (inactive); in the assay with T47D, 0.847 µM (active); in the assay on DU-145 it was 0.0569 µM (active); in the assay on TK-10, 0.0881 µM (active); in the assay on SR it was 0.0158 µM (active); in the assay on MDA-MB-435, 0.0427 µM (active). The GI50 is 0.047 µM (active) in the assay on PC-3; 0.0124 µM (active) with COLO 205; 0.428 µM (active) in the assay with UO-31; 0.0262 µM (active) in the assay on SK-OV-3; 0.0137 µM (active) in the assay on MCF7; 0.0165 µM (active) in the assay with KM12. The GI50 in the assay with CCRF-CEM is 0.493 µM (active).

The record behind these values is ChEMBL document CHEMBL1201862, “PubChem BioAssay data set” (2004).
